Test results taken from patent publication US11524014B2, “Pharmaceutical formulations and systems for delivery of an androgenic agent and an aromatase inhibitor with sustained multi-phasic release profiles and methods of use” (Havah Therapeutics Pty Ltd., priority 2019, dated 2022).
Where “and” joins values, the source holds several entries; their conditions need not be identical. Equal entries are not always repeated. Where two headings read alike, the source gives them in different places.

Experiments:
[1] = oral anastrozole; cited from earlier work
clinical = conditions: female, human, in vivo; for half-life: t1/2, arithmetic mean (terminal half-life)
Experimental: Pre-menopausal women with high Mammographic Breast Density (MBD) was selected for the study. Following the successful screening, participants came to the Wellend Clinic South Australia for dosing. The participants were to be dosed while in the luteal phase of their menstrual cycle to avoid the highly changing hormonal environment of the follicular phase. Following insertion of the implant, PK blood sampling was carried out for a duration of three months. Briefly, samples were taken repeatedly on the day of dosing, daily during the first week, weekly for the next four weeks and every second week during the last eight weeks, for a total sampling period of three months. After assessments had been completed on the last day of assessments, Day 85, the trial concluded.
The sampling schedule was revised with the addition of one blood sample (at 6 hours post-dose), and no adjustment of the timing of existing time points. The duration of sampling was not extended.
In summary, following dosing on Day 1, blood samples were taken pre-dose (within one hour of dosing) and at 1, 2, 4, 6, 8 and 12 hours. Participants returned for a blood sample to be taken at 9 am in the morning on Days 2, 3, 4, 5, 8, 15, 22, 29, 43, 57, 71 and 85.
A total of 11 subjects were dosed and included in the safety analysis set. Eleven subjects were included in the PK analysis set. Women were aged between 35 and 55 years of age, Body Mass Index (BMI) range of 20-30 kg/m^2.

[2] = Population pharmacokinetic modelling of anastrozole from the Example 1 trial; assay type: in vivo, human
Experimental: Data in these figures are presented as mean+/−standard deviation. […] The percentage change from baseline was calculated for the average volume and plotted against time in months. […] In FIG. 8A, the data on the X axis is plotted in time (hours) after transplantation. In FIG. 8B the X axis is on a log scale. In FIGS. 8A-B, the open circles equal observed data, the black line equals median PK profile, and the dashed dark grey line equals lower limit of quantification (0.1 ng/mL).
One and two compartment models were fitted to the data. Several absorption models were tested such as first and zero order, mixed order, as well as transit compartments. Model selection was performed on the basis of statistical criteria (objective function) as well as visual inspection of diagnostic plots. […] Between-subject variability (BSV) was included on apparent clearance (CL/F), apparent volume of distribution for the central compartment (Vc/F) and the first-order absorption rate constant (KA). A proportional error model was used to describe residual unexplained variability (RUV).

IL-6 = conditions: female breast cells treated with testosterone (Guhl, 2012); cited from earlier work
[3] = two-compartment model with dual input, T+Ai implant, n=11

CC(C)(C#N)c1cc(Cn2cncn2)cc(C(C)(C)C#N)c1 [Anastrozole, 2,2′-[5-(1H-1,2,4-triazol-1-ylmethyl)-1,3-phenylene]bis(2-methylpropanenitrile)]
half-life [1]: 48 h
t1/2, arithmetic mean (terminal half-life) (female, human, in vivo, sc): 326 h
CL/F, arithmetic mean (NCA) (human, in vivo, sc): 1.88 L/h
concentration at 12 weeks (clinical): < 0.1 ng/mL
Tmax (clinical; sc, Tmax, median, single s.c. T+Ai implant 80 mg/4 mg, women, n=11, anastrozole in plasma, testosterone in serum): 48.6 h
Tmax (clinical; sc, median Tmax post-dose, plasma anastrozole after single s.c. T+Ai implant, range 1-3 days): 48 h
half-life (clinical; sc): 336 h
Fraction absorbed via second input ([2]; fixed in the model (FIX)): 0.5 FIX
Absorbtion rate constant (ka) first input, estimated value (% RSE) [2, 3]: 0.119 (20.6) /hr
Absorbtion rate constant (ka) second input, estimated value (% RSE) [2, 3]: 0.148 (20.5) /hr
Apparent central volume of distribution (Vc/F), estimated value (% RSE) [2, 3]: 672 (3.0) L
Apparent clearance (CL/F), estimated value (% RSE) [2, 3]: 1.77 L/hr and 1.77 (6.9) L/hr
Apparent peripheral volume of distribution (Vp/F), estimated value (% RSE) [2, 3]: 106 (29.8) L
Inter-compartmental clearance (Q/F), estimated value (% RSE) [2, 3]: 0.97 (57.7) L/hr
Lagged time for second input, estimated value (% RSE) [2, 3]: 3.77 (9.7) h

C[C@]12CC[C@H]3[C@@H](CCC4=CC(=O)CC[C@@]43C)[C@@H]1CC[C@@H]2O [Testosterone, testosterone]
reduction of IL-6 levels (IL-6): 53%
time of second lower serum peak (serum testosterone after single s.c. T+Ai implant): 2-3 weeks
Cmax, arithmetic mean (single s.c. T+Ai implant 80 mg/4 mg, women, n=11, anastrozole in plasma, testosterone in serum): 4.08 ng/mL
Tmax (clinical; sc): 8 h
Cmax (clinical; sc, Cmax, arithmetic mean, single s.c. T+Ai implant 80 mg/4 mg, women, n=11, anastrozole in plasma, testosterone in serum): 4.1 ng/mL
half-life (clinical; sc, single s.c. T+Ai implant 80 mg/4 mg, women, n=11, anastrozole in plasma, testosterone in serum): 1030 h

C[C@]12CCC(=O)C[C@@H]1CC[C@@H]1[C@@H]2CC[C@]2(C)[C@@H](O)CC[C@@H]12 [dihydrotestosterone, 5 alpha dihydrotestosterone]
serum level measurability (serum dihydrotestosterone after single s.c. T+Ai implant): not measurable in most samples
Tmax (clinical; Tmax post-dose, serum dihydrotestosterone, participants with measurable maximal values): 48 to 72 h
